# In patent publication US4670038A, “Cyclotriphosphazatriene-derivatives as soil urease activity inhibitors” (Tennessee Valley Authority, priority 1986, dated 1987):
# Entries after “also recorded” stand apart in the source; their conditions may differ. Where two headings read alike, the source gives them in different places.
# What was measured:
# soil urease [1] = experiment: Urea hydrolysis in bands of urea plus inhibitor in Hastings silt loam soil (banded system); type: biochemical; conditions: for Unhydrolyzed Urea, % Banded 3-Day / Unhydrolyzed Urea, % Banded 6-Day: Table VI, 41 mg inhibitor/band; for Unhydrolyzed Urea, % 3 Days / Unhydrolyzed Urea, % Banded 3-Day: 3 days; for Unhydrolyzed Urea, % 6 Days / Unhydrolyzed Urea, % Banded 6-Day: 6 days
# soil urease [2] = experiment: Soil urease inhibition in Crowley silt loam soil, extended time evaluation system (urea added at selected intervals); type: biochemical; conditions: for Soil Urease Inhibition, 0 Days / Soil Urease Inhibition, 3 Days / Soil Urease Inhibition, 7 Days / Soil Urease Inhibition, 14 Days / Soil Urease Inhibition, 21 Days: 7 micromoles compound per 120 g Crowley silt loam, reincubated 16 hours; for Soil Urease Inhibition, 0 Days: urea added after 0 days; for Soil Urease Inhibition, 3 Days: urea added after 3 days; for Soil Urease Inhibition, 7 Days: urea added after 7 days; for Soil Urease Inhibition, 14 Days: urea added after 14 days; for Soil Urease Inhibition, 21 Days: urea added after 21 days
# soil urease [3] = experiment: Urea remaining unhydrolyzed in Hastings silt loam soil, well-mixed system; type: biochemical; conditions: for Soil urease inhibitory properties in words, well-mixed system: 1-, 3- and 6-day tests, compared with phenyl phosphorodiamidate; for Unhydrolyzed Urea, % Well-Mixed 1-Day / Unhydrolyzed Urea, % Well-Mixed 3-Day / Unhydrolyzed Urea, % Well-Mixed 6-Day: Table V, 41 mg inhibitor, 410 mg urea, 100 g soil, three replications, 25° C.; for Unhydrolyzed Urea, % Well-Mixed 3-Day: 3 days; for Unhydrolyzed Urea, % Well-Mixed 6-Day: 6 days; for Time until percentage urease inhibition reaches 0% (FIG. 1): FIG. 1, plotted and extrapolated from data of Table V, conventional test
# [4] = soil, 168 h; cited from earlier work
# [5] = cited from earlier work
# [6] = Hastings silt loam, banded system, 3-day and 6-day tests
# [7] = Table IV, inhibitor 10 percent of urea (wt/wt), 41 mg/band, two replications, Hastings silt loam
# [8] = 410 mg urea/band, three replications, Hastings silt loam, 25° C.
# [9] = Table II, equimolar basis, 0.25 millimoles inhibitor/band, 410 mg urea/band, three replications, Hastings silt loam, 25° C.
# [10] = Table III, inhibitor 10 percent of urea (wt/wt), 41 mg/band, four replications, Hastings silt loam, 25° C.
SMILES,"Soil urease inhibition in words, banded soil tests (soil urease [1]; [6])","Unhydrolyzed Urea, % 3 Days (soil urease [1]; [7])","Unhydrolyzed Urea, % 6 Days (soil urease [1]; [7])","Soil Urease Inhibition, 0 Days (soil urease [2]; 30° C.)","Soil Urease Inhibition, 3 Days (soil urease [2]; 30° C.)","Soil Urease Inhibition, 7 Days (soil urease [2]; 30° C.)","Soil Urease Inhibition, 14 Days (soil urease [2]; 30° C.)","Soil Urease Inhibition, 21 Days (soil urease [2]; 30° C.)","Soil urease inhibitory properties in words, well-mixed system (soil urease [3])","Unhydrolyzed Urea, % Well-Mixed 1-Day (soil urease [3])","Unhydrolyzed Urea, % Well-Mixed 3-Day (soil urease [3])","Unhydrolyzed Urea, % Well-Mixed 6-Day (soil urease [3])","Unhydrolyzed Urea, % Banded 3-Day (soil urease [1]; [8])","Unhydrolyzed Urea, % Banded 6-Day (soil urease [1]; [8])","Unhydrolyzed Urea, % 3 Days (soil urease [1]; [9])","Unhydrolyzed Urea, % 6 Days (soil urease [1]; [9])",other results
"CN(C)P1(N(C)C)=NP(N)(N)=NP(N(C)C)(N(C)C)=N1 [P3 N3 (NH2)2 [N(CH3)2]4, 2,2,4,4,-tetra(dimethylamino)-6,6-diaminocyclotriphosphazatriene]",do not exhibit urease inhibition,–,–,–,–,–,–,–,–,–,–,–,–,–,–,–,–
"CNP1(NC)=NP(N)(N)=NP(NC)(NC)=N1 [P3 N3 (NH2)2 (NHCH3)4, 2,2,4,4,-tetra(monomethylamino)-6,6-diaminocyclotriphosphazatriene]",–,0.5%,0.0%,–,–,–,–,–,–,–,–,–,–,–,–,–,–
"CN(C)P1(N(C)C)=NP(N(C)C)(N(C)C)=NP(N(C)C)(N(C)C)=N1 [P3 N3 [N(CH3)2]6, 2,2,4,4,6,6-hexa(dimethylamino)cyclotriphosphazatriene]",do not exhibit urease inhibition,0.0%,0.0%,–,–,–,–,–,–,–,–,–,–,–,–,–,–
"NP1(Oc2ccccc2)=NP(N)(Oc2ccccc2)=NP(N)(Oc2ccccc2)=N1 (centres unmarked) [P3 N3 (NH2)3 (OC6 H5)3, 2,4,6-triphenoxy-2,4,6-triaminocyclotriphosphazatriene]",–,–,–,22%,79%,74%,84%,82%,less than that of phenyl phosphorodiamidate,82%,37%,0%,21%,0%,–,–,"Urease inhibition sustained during the period from 7 to 21 days (FIG. 2) (soil urease [2]; Crowley silt loam, 30° C., period from 7 to 21 days): greater than 80%"
"NC(=O)NO [CO(NH2)(NHOH), Hydroxyurea, reference compound]",–,–,–,–,–,–,–,–,–,–,–,–,–,–,20.3%,0.2%,–
"CC(=O)NO [CH3 C(NOH)(OH), Acetohydroxamic acid, reference compound]",–,–,–,–,–,–,–,–,–,–,–,–,–,–,26.2%,6.7%,–
"CNP1(NC)=NP(NC)(NC)=NP(NC)(NC)=N1 [P3 N3 (NHCH3)6, 2,2,4,4,6,6-hexa(monomethylamino)cyclotriphosphazatriene]",do not exhibit urease inhibition,0.0%,0.0%,–,–,–,–,–,–,–,–,–,–,–,–,–,–
"ClP1(Oc2ccccc2)=NP(Cl)(Oc2ccccc2)=NP(Cl)(Oc2ccccc2)=N1 (centres unmarked) [P3 N3 (Cl)3 (OC6 H5)3, 2,4,6-triphenoxy-2,4,6-trichlorocyclotriphosphazatriene]",–,–,–,–,–,–,–,–,–,–,–,–,–,–,–,–,"Soil urease inhibition in words, banded soil tests (soil urease [1]): not effective urease inhibitors"
"NP1(N)=NP(N)(N)=NP(N)(Oc2ccccc2)=N1 (centres unmarked) [P3 N3 (NH2)5 (OC6 H5), 2-phenoxy-2,4,4,6,6-pentaaminocyclotriphosphazatriene]",inhibit soil urease during the 3-day and 6-day tests,–,–,95%,75%,49%,42%,44%,comparable to phenyl phosphorodiamidate,96%,82%,44%,61%,7%,–,–,Time until percentage urease inhibition reaches 0% (FIG. 1) (soil urease [3]): about 10 days
"NP(N)(N)=O [PO(NH2)3, Phosphoryltriamide, reference compound]",–,54.2%,2.6%,29%,4%,12%,0%,0%,–,–,–,–,–,–,43.4%,1.8%,"Unhydrolyzed Urea, % 3 Days (soil urease [1]; [10]): 48.1%; Unhydrolyzed Urea, % 6 Days (soil urease [1]; [10]): 1.1%"
"NP1(N)=NP(N)(N)=NP(N)(N)=N1 [P3 N3 (NH2)6, 2,2,4,4,6,6-hexaaminocyclotriphosphazatriene]",comparable to PPDA as an inhibitor of soil urease activity; also recorded: inhibit soil urease during the 3-day and 6-day tests,53.8%,9.5%,46%,23%,20%,4%,4%,less than that of phenyl phosphorodiamidate,86%,57%,9%,64%,8%,48.1%,16.8%,"Soil Urease Inhibition, 21 Days (soil urease [2]; 30° C., listed as hexaaminocyclotriphosphazatriene): about 4%; Urease inhibition compared with reference standard PPDA, in words (FIG. 2) (soil urease [2]; time independent modified soil evaluation procedure, 21-day test period): as good or better than PPDA for the time period from 14 to 21 days; Percent hydrolyzed in 7 days [4]: 6-13%; Unhydrolyzed Urea, % 3 Days (soil urease [1]; [10]): 49.7%; Unhydrolyzed Urea, % 6 Days (soil urease [1]; [10]): 9.5%; Time of hydrolysis ([5]; pH 8, 15° C.): about 300 hours; Time of hydrolysis ([5]; pH 8, 30° C.): ~100 h"
"NP1(N)=NP(N)(Oc2ccccc2)=NP(N)(Oc2ccccc2)=N1 (centres unmarked) [P3 N3 (NH2)4 (OC6 H5)2, 2,4-diphenoxy-2,4,6,6-tetraaminocyclotriphosphazatriene]",inhibit soil urease during the 3-day and 6-day tests,–,–,75%,94%,71%,69%,65%,comparable to phenyl phosphorodiamidate,94%,74%,36%,60%,4%,–,–,Time until percentage urease inhibition reaches 0% (FIG. 1) (soil urease [3]): about 10 days
